Results from patent publication US20250002954A1, “Novel Compound, Use Thereof, and Method for Producing Same, and Compound-Containing Composition, Method for Producing 4-Trehalosamine, and Microorganism” (Microbial Chemistry Research Foundation, priority 2021, published 2025).

What was measured:
[1] = molecular target: T1, bovine alkaline phosphatase (CIP) (Bos taurus, UniProt P19111); assay: Evaluation of CIP-protective activity under freeze-dried condition; type: biochemical; settings: for CIP activity after freeze-drying: freeze-dried with 3% additive
T1 construct: purchased New England Biolabs
Protocol: Test samples 1 to 12 containing bovine alkaline phosphatase (CIP) were prepared as follows and protein-protective activity of various kinds of added sugar under freeze-dried condition was evaluated.
After bovine alkaline phosphatase (10 units/μL, manufactured by New England Biolabs) was diluted to 1/40 with TBS (manufactured by Takara Bio Inc.), it was subjected to dialysis for 2 hours at 4° C. within TBS of an amount 1,000 times the diluted enzyme solution to remove glycerol. 40 μL of TBS containing 2% trehalose (TRH) was added to and mixed with 40 μL of the enzyme solution after dialysis and the mixture was frozen at −80° C. for 10 minutes. It was then freeze-dried for 20 hours with a freeze dryer (FLEXI-DRY, manufactured by FTS systems INC., Warminster) connected to a vacuum pump (P65D, manufactured by PHIL Sato Vac INC.), preparing freeze-dried product of enzyme with 1% TRH.
Freeze-dried product of enzyme with 3% TRH was prepared in a similar manner to the preparation method of test sample 4 except that the final concentration of trehalose was changed to 3% in the preparation method of test sample 4. […]
Freeze-dried product of enzyme with 3% 4TA was prepared in a similar manner to the preparation method of test sample 5 except that trehalose was changed to 4-trehalosamine (4TA) in the preparation method of test sample 5. […]
Freeze-dried product of enzyme with 3% MLT was prepared in a similar manner to the preparation method of test sample 5 except that trehalose was changed to maltose (MLT) in the preparation method of test sample 5. […]
Freeze-dried product of enzyme with 3% SCR was prepared in a similar manner to the preparation method of test sample 5 except that trehalose was changed to sucrose (SCR) in the preparation method of test sample 5.
Freeze-dried product of enzyme with 3% GOL was prepared in a similar manner to the preparation method of test sample 5 except that trehalose was changed to glycerol (GOL) in the preparation method of test sample 5.
80 μL of water was added to each of the freeze-dried products of test samples 3 to 12 and the mixture was diluted to 1/100 with TBS. Test samples 1 and 2 were diluted to 1/100 with TBS. 10 μL of each of the diluted test samples 1 to 12 and 20 μL of 0.1 M p-nitrophenylphosphate (pNPP)-TBS solution were added to 70 μL of TBS, and enzyme reaction was left to take place at 37° C. for 1 hour. After the reaction, absorbance at 420 nm was measured with a microplate reader (Cytation5, manufactured by Bio Tek Instruments) and CIP activity was measured by the amount of p-nitrophenol as enzyme reaction product (n=3, mean±S.D.).

[2] = tested on: baker's yeast (Saccharomyces cerevisiae F-7); assay: Evaluation of baker's yeast protective activity in freeze-dried condition; type: cell-based; settings: for Numbers of live bacterial cells (relative numbers): baker's yeast freeze-dried with 6% aqueous solution (final concentration 3%), test sample 3 (FD) = 1
Protocol: Using test samples 1 to 8 containing baker's yeast prepared in the following manner, microorganism-protective activity with various kinds of sugar in a freeze-dried condition was evaluated.
Frozen stock of baker's yeast (Saccharomyces cerevisiae F-7, owned by the Microbial Chemistry Research Foundation) was inoculated in 10 mL of YPD culture fluid (1% yeast extract, 2% polypeptone, 2% glucose) and cultured at 27° C. for 2 days while shaking it at 220 rpm. After culture, it was centrifuged at 1,000×g for 5 minutes, washed once with 10 mL of water, and then suspended in 10 mL of water, thus obtaining yeast suspension. 50 μL of water was added to and mixed with 50 μL of this yeast suspension and the mixture was left to stand at 4° C. for 12 hours, preparing control (NF).
After yeast suspension was prepared in a similar manner to test sample 1, 50 µL of 6% aqueous solution of trehalose was added to and mixed with 50 μL of the yeast suspension, and the mixture was frozen at −80° C. for 1 hour. It was then freeze-dried for 12 hours with a freeze dryer (FLEXI-DRY, manufactured by FTS systems INC., Warminster) connected to a vacuum pump (P65D, manufactured by PHIL Sato Vac INC.), preparing freeze-dried product (TRH) of yeast with TRH.
Freeze-dried product (4TA) of yeast with 4TA was obtained in a similar manner to the preparation method of test sample 4 except that trehalose was changed to 4-trehalosamine (4TA) in the preparation method of test sample 4.
Freeze-dried product (MLT) of yeast with MLT was obtained in a similar manner to the preparation method of test sample 4 except that trehalose was changed to maltose (MLT) in the preparation method of test sample 4.
Freeze-dried product (SCR) of yeast with SCR was obtained in a similar manner to the preparation method of test sample 4 except that trehalose was changed to sucrose (SCR) in the preparation method of test sample 4.
Freeze-dried product (GOL) of yeast with GOL was obtained in a similar manner to the preparation method of test sample 4 except that trehalose was changed to glycerol (GOL) in the preparation method of test sample 4.
For test samples 1 and 2, serial suspensions were made by diluting them to 1/10 with saline. 100 μL of water was added to each of the freeze-dried products of test samples 3 to 8 and diluted to 1/10 with saline to make their serial suspensions. 60 μL of water was added to 30 μL of each diluted solution.
In a 6-well microplate, 2% Agar-YPD was prepared at 3 mL/well, and 90 μL of each diluted solution was inoculated on the 2% Agar-YPD and cultured at 30° C. for two days.
Wells in which the number of colonies was measurable were selected and the numbers (relative numbers) of live bacterial cells per well on test samples 1, 2, and 4 to 8 when the number of live bacterial cells per well on test sample 3 (FD) was “1” were calculated in consideration of the dilution concentrations of those test samples.

T1 sequence (P19111 20-506): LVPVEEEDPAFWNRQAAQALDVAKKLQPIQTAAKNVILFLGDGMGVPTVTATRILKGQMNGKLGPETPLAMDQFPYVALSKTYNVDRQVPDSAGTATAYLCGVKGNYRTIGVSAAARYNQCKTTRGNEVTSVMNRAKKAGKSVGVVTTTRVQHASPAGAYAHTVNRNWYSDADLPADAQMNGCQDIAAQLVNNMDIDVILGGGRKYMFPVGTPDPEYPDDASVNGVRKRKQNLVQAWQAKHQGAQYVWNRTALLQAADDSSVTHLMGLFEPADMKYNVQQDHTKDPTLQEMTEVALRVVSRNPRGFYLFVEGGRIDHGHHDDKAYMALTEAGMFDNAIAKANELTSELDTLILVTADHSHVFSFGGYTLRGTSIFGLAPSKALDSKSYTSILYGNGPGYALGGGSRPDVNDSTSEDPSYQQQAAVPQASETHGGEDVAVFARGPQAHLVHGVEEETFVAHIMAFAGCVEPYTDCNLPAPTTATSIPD

SMILES | CIP activity after freeze-drying [1] | Numbers of live bacterial cells (relative numbers) [2] | CIP protection effect compared to other sugars ([1]; freeze-dried) | protective effect on microorganisms, comparison ([2]; baker's yeast, freeze-dried)
OCC(O)CO [GOL, glycerol] | enzyme activity significantly dropped | 0 | – | –
OC[C@H]1O[C@H](O[C@H]2[C@H](O)[C@@H](O)C(O)O[C@@H]2CO)[C@H](O)[C@@H](O)[C@@H]1O (mixture of isomers) [maltose] | good activity was maintained | 10 | – | –
N[C@H]1[C@H](O)[C@@H](O)[C@@H](O[C@H]2O[C@H](CO)[C@@H](O)[C@H](O)[C@H]2O)O[C@@H]1CO [4-trehalosamine] | good activity was maintained | 100 | high compared to the other sugars | stronger than when maltose or sucrose was added
OC[C@H]1O[C@@](CO)(O[C@H]2O[C@H](CO)[C@@H](O)[C@H](O)[C@H]2O)[C@@H](O)[C@@H]1O [sucrose] | good activity was maintained | 10 | – | –
OC[C@H]1O[C@H](O[C@H]2O[C@H](CO)[C@@H](O)[C@H](O)[C@H]2O)[C@H](O)[C@@H](O)[C@@H]1O [trehalose, reference compound] | good activity was maintained | 100 | – | –
